Measurements from patent publication US20250345378A1 (priority 2022, published 2025).
Read-outs that look alike come from different tables or passages of the source.

What was measured:
[1] = tested on: E. coli strain ATCC 700928; test: Mouse UTI model, CK570 IU or IV: bacterial burden in kidneys, bladder, urine; format: in vivo, C3H/OuJ mice; conditions: each tissue, all timepoints
Source text: The vehicle used in this study was 1×TBS. […] C3H/OuJ female mice, aged approximately 8 weeks and weighing 21 to 24 grams, were used in this study. Mice were housed with 1 to 5 animals per cage and were provided food (5P76 Prolab isopro irradiated lab diet) and water ad libitum. […] Each mouse was then placed on a board, ventral side up, with the nose inserted into a nose cone supplying isoflurane. The lower abdomen was gently massaged to expel any urine in the bladder. […] For IV administration, mice were manually restrained in a restrainer device, and study treatment was administered via the lateral tail vein. […] For IU administration, the same method was used as for the original administration of E. coli. A dose volume of 50 μL was used for IU administration. […] All CFU data were log-transformed.

[2] = tested on: 304 E. coli clinical isolates; format: cell-based, Escherichia coli
Experimental: (§1) Phage cocktail CK618 was tested in combination with and alongside antibiotics against two isolate panels. The first assay used a panel of 88 contemporaneous urinary tract infection (UTI) isolates from North America, Europe, Latin America, and Asia. […] The second assay used a panel made up of a 300-strain clinical isolate panel (Table 14) with an additional 4 strains of interest. […] Four of the same SOC antibiotics tested against the 88-isolate panel were tested against this panel. The non-SOC antibiotics were not included due to their limited use in clinical settings, and nitrofurantoin was not included due to the low probability of resistance to this drug.
(§2) For both isolate panels, antibiotic concentrations tested were determined by using Clinical and Laboratory Standards Institute (CLSI) or European Committee on Antimicrobial Susceptibility Testing (EUCAST) breakpoints at concentrations that kill susceptible isolates but allow intermediate or resistant isolates to grow in the standard AST microdilution assay (Table 17).
(§3) The composition of the proposed Phase 2 CRISPR-enhanced bacteriophage (CRISPR-phage, hereafter termed ‘crPhage’) cocktail (CK618) has been updated from the CK570 to include six bacteriophages as compared to three bacteriophages in CK570. Bacteriophage cocktail CK618, was prepared such that all bacteriophages had equivalent titers in the final cocktail. The cocktail was then mixed with bacteria to obtain final titers of 1×10^6 plaque-forming unit (PFU)/mL/phage for the cocktail and 1×10^5 colony-forming unit (CFU)/mL for the bacteria, resulting in a multiplicity of infection (MOI) of 10 for each bacteriophage in a sample. Briefly, 5 μl of each sample (CK618 alone, CK618 and antibiotics, antibiotics alone, or medium alone) was added to 5 μl of optical density (OD)-normalized bacterial isolate and 40 μl LB medium. Reactions were incubated at 37° C. with shaking and OD measurements were taken each hour for 20 hours.
(§4) Host range percentage is the percent of isolates that responded to treatment of antibiotics or CK618. In the case of the 88-isolate panel, results were analyzed on the complete panel as well as the subset of classified as multidrug-resistant (MDR) (n=21) and beta-lactam-resistant (n=31).
(§5) The first assay used a panel of 88 contemporaneous isolates. Twenty-one of those strains are classified as MDR, with resistance to 3 or more antibiotic classes. […] The second assay used the panel made up of a 300-strain clinical isolate panel with an additional 4 strains of interest.
(§6) Antibiotic concentrations tested were determined by using CLSI or EUCAST breakpoints at concentrations that kill susceptible strains but allow intermediate or resistant strains to grow in the standard AST microdilution assay (Table 27). LBP-EC01 v.2 was combined with bacteria resulting in a MO of 10 for each bacteriophage in a sample. In the case of the 88-isolate panel, results were analyzed on the complete panel as well as the subset of isolates classified as multidrug-resistant (MDR) (n=21) and beta-lactam-resistant (n=31).

[3] = tested on: 88 urinary tract infection E. coli isolates; format: cell-based, Escherichia coli; conditions: for Host Range % on MDR Subset (n = 21), Combination: Antibiotic + LBP-EC01 v.2 / Host Range % on all Strains (n = 88), Combination: Antibiotic + LBP-EC01 v.2 / Host Range % on Beta-lactam-Resistant Subset (n = 31), Combination: Antibiotic + LBP-EC01 v.2: antibiotic combined with LBP-EC01 v.2; for Host Range % on all Strains (n = 88), Combination: Antibiotic + CK618 v.2: antibiotic at breakpoint concentration plus cocktail 1 × 10^6 PFU/ml per bacteriophage
Experimental: as §1, §2, §3, §4, §5, §6

E. coli strain b3370 = test: Neutropenic thigh model, Colicin 10 and Colicin U (Study 23-END-056); format: in vivo, ICR mouse; conditions: 4 h and 7 h; 295 nM Colicin 10, 29.5 nM Colicin U
Experimental: Study 23-END-056 was performed to evaluate the statistical difference between Control and Colicin treatment and sustained reduction of bacteria burden to LOD with colicin treatment in an ICR mouse model (FIG. 51). Specifically, the efficacy of 29.5 nM Colicin U, and combination therapy of both of 295 nM Colicin 10 & 29.5 nM Colicin U were evaluated in an ICR mouse model compared with no treatment (Table 40 and FIG. 52). In these experiments, due to high endotoxin, Colicin U was diluted 1:10 more than Colicin 10. At the 4 h and 7 h time points, treatment with 295 nM Colicin 10 lowered CFU, whereas no change was seen after treatment with 29.5 Colicin U.

[4] = tested on: E. coli strains b3411 and b3370; test: In vitro CFU reduction by purified colicins; format: cell-based, Escherichia coli; conditions: ~30 min, then regrowth
Experimental: Colicins produced an immediate significant reduction of CFU/mL (˜30 min) after adding colicins before bacterial regrowth.

[5] = 88-isolate panel, listed as Fosfomycin 8
[6] = 88-isolate panel, listed as Fosfomycin 64

O=C(O)c1cn(C2CC2)c2cc(N3CCNCC3)c(F)cc2c1=O [Ciprofloxacin]
bacterial burden, positive control [1]: significantly reduced bacterial burden to the LOD in each tissue

C[C@@H]1O[C@@H]1P(=O)(O)O [Fosfomycin]
host range performance compared with antibiotics / combination (in words) ([2]; 88- and 304-isolate panels, all, MDR and beta-lactam-resistant strains): strong activity across all strains | Host range % on MDR subset (n = 93), Combination: Antibiotic + LBP-CK618 ([2]; 304-isolate panel): 96.8% | Host range % on MDR subset (n = 93), Single agent treatment ([2]; 304-isolate panel): 83.9% | Host range % on beta-lactam-resistant subset (n = 91), Combination: Antibiotic + LBP-CK618 ([2]; 304-isolate panel): 96.7% | Host range % on beta-lactam-resistant subset (n = 91), Single agent treatment ([2]; 304-isolate panel): 86.8% | Host Range % on MDR Subset (n = 93), Combination Antibiotic + LBP-EC01 v.2 ([2]; 304-isolate panel, MDR subset, antibiotic combined with LBP-EC01 v.2): 96.8% | Host Range % on all Strains (n = 304), Combination: Antibiotic + LBP-EC01 v.2 ([2]; 304-isolate panel, all strains, antibiotic combined with LBP-EC01 v.2): 97.0% | Host Range % on all Strains (n = 304), Single agent treatment ([2]; 304-isolate panel, all strains, single agent): 87.5% | Host Range % on Beta-lactam-Resistant Subset (n = 91), Combination: Antibiotic + LBP-EC01 v.2 ([2]; 304-isolate panel, beta-lactam-resistant subset, antibiotic combined with LBP-EC01 v.2): 96.7% | Host range % on beta-lactam-resistant subset (n = 91), Single agent treatment ([2]; 304-isolate panel, beta-lactam-resistant subset, single agent): 86.8% | Host Range % on MDR Subset (n = 21), Combination: Antibiotic + LBP-EC01 v.2 ([3]; 88-isolate panel, MDR subset, listed as Fosfomycin 8): 95.2% | Host Range % on MDR Subset (n = 21), Combination: Antibiotic + LBP-EC01 v.2 ([3]; 88-isolate panel, MDR subset, listed as Fosfomycin 64): 100.0% | Host Range % on MDR Subset (n = 21), Single agent treatment ([3]; 88-isolate panel, MDR subset, single agent, listed as Fosfomycin 8): 90.5% | Host Range % on MDR Subset (n = 21), Single agent treatment ([3]; 88-isolate panel, MDR subset, single agent, listed as Fosfomycin 64): 96.8% | Host Range % on all Strains (n = 88), Combination: Antibiotic + LBP-EC01 v.2 ([3]; 88-isolate panel, all strains, listed as Fosfomycin 8): 93.9% | Host Range % on all Strains (n = 88), Combination: Antibiotic + LBP-EC01 v.2 ([3]; 88-isolate panel, all strains, listed as Fosfomycin 64): 98.5% | Host Range % on all Strains (n = 88), Single agent treatment ([3]; 88-isolate panel, all strains, single agent, listed as Fosfomycin 8): 85.2% | Host Range % on all Strains (n = 88), Single agent treatment ([3]; 88-isolate panel, all strains, single agent, listed as Fosfomycin 64): 93.2% | Host Range % on Beta-lactam-Resistant Subset (n = 31), Combination: Antibiotic + LBP-EC01 v.2 ([3]; 88-isolate panel, beta-lactam-resistant subset, listed as Fosfomycin 8): 94.6% | Host Range % on Beta-lactam-Resistant Subset (n = 31), Combination: Antibiotic + LBP-EC01 v.2 ([3]; 88-isolate panel, beta-lactam-resistant subset, listed as Fosfomycin 64): 100.0% | Host Range % on Beta-lactam-Resistant Subset (n = 31), Single agent treatment ([3]; 88-isolate panel, beta-lactam-resistant subset, single agent, listed as Fosfomycin 8): 87.1% | Host Range % on Beta-lactam-Resistant Subset (n = 31), Single agent treatment ([3]; 88-isolate panel, beta-lactam-resistant subset, single agent, listed as Fosfomycin 64): 95.7% | Host Range % on Beta-lactam-Resistant Subset (n = 31), Combination: Antibiotic + CK618 v.2 [3, 5]: 94.6% | Host Range % on Beta-lactam-Resistant Subset (n = 31), Single agent treatment [3, 5]: 87.1% | Host Range % on MDR Subset (n = 21), Combination: Antibiotic + CK618 v.2 [3, 5]: 95.2% | Host Range % on MDR Subset (n = 21), Single agent treatment [3, 5]: 90.5% | Host Range % on Beta-lactam-Resistant Subset (n = 31), Combination: Antibiotic + CK618 v.2 [3, 6]: 100.0% | Host Range % on Beta-lactam-Resistant Subset (n = 31), Single agent treatment [3, 6]: 95.7% | Host Range % on MDR Subset (n = 21), Combination: Antibiotic + CK618 v.2 [3, 6]: 100.0% | Host Range % on MDR Subset (n = 21), Single agent treatment [3, 6]: 96.8% | Host Range % on all Strains (n = 88), Single agent treatment ([3]; antibiotic at breakpoint concentration (Table 17), cocktail 1 × 10^6 PFU/ml per bacteriophage, MOI 10, listed as Fosfomycin 8): 85.2% | Host Range % on all Strains (n = 88), Single agent treatment ([3]; antibiotic at breakpoint concentration (Table 17), cocktail 1 × 10^6 PFU/ml per bacteriophage, MOI 10, listed as Fosfomycin 64): 93.2% | Host Range % on all Strains (n = 88), Combination: Antibiotic + CK618 v.2 ([3]; listed as Fosfomycin 8): 93.9% | Host Range % on all Strains (n = 88), Combination: Antibiotic + CK618 v.2 ([3]; listed as Fosfomycin 64): 98.5%

B1: Colicin 10 (protein)
chain: MDKVTDNSPDVESTESTEGSFPTVGVDTGDTITATLATGTENVGGGGGAFGGASESSAAIHATAKWSTAQLKKHQAEQAARAAAAEAALAKAKSQRDALTQRLKDIVNDALRANAARSPSVTDLAHANNMAMQAEAERLRLAKAEQKAREEAEAAEKALREAERQRDEIARQQAETAHLLAMAEAAEAEKNRQDSLDEEHRAVEVAEKKLAEAKAELAKAESDVQSKQAIVSRVAGELENAQKSVDVKVTGFPGWRDVQKKLERQLQDKKNEYSSVTNALNSAVSIRDAKKTEVQNAEIKLKEAKDALEKSQVKDSVDTMVGFYQYITEQYGEKYSRIAQDLAEKAKGSKFNSVDEALAAFEKYKNVLDKKFSKVDRDDIFNALESITYDEWAKHLEKISRALKVTGYLSFGYDVWDGTLKGLKTGDWKPLFVTLEKSAVDFGVAKIVALMFSFIVGAPLGFWGIAIITGIVSSYIGDDELNKLNELLGI
modifications: Colicin 10
CFU in mouse thigh compared with no treatment (E. coli strain b3370): lowered CFU | CFU reduction after adding colicins [4]: CFU reduction was observed

B2: Colicin U (protein)
chain: MPGFNYGGHGDGTGWSSERGDGPAPGGGMQGNGGGHSGNNDSGSNSVSQQISAIQNDQKLKQKVVNMLIAARKMNPDAKMILGSIAPSGVMQVTIEGVTSTQARQLGLGGLVMGYNASGVIGAVGEIDTGHRLNASGASTPGSETSVDSFVNGQKPAEEWHAVAKDSWTGAGPVNTGLVNNAIKSVRIIKKGYVTGVLTPEEVMNKAEYKAMRQAFDSLPLAKQGEAVRQIVAAWSLAYQDFPVNLKKEMGRVTERIVDAINLALILNQTESRLSESQKNVDVANQIISDTVKAINDVNKKIAEKRNQQVSLTDLMNKKQKEVEDLKKIFKNHSYHRIRDAQREYDDARNKYALLASDINALQAQVSGLTARKQQAEQNKAAAEKAKADAAAKAAAEKAAAEAKAKAEAEKARKEAEEKANDEKAVLTKASEIIISVGDKAGEYLGDKYKVLSREIADNIKNFQGKTIRSYDEAMASVNKLMANPDLKINAADRDAIVNAWKAFDAEDMGNKFAALGKTFKAADYVMKANNVREKSIEGYQTGNWGPLMLEIESWVLSGIASAVALSFFSAIFGTFAMLGVFSTSLAGILAVILAGLVGALIDDNFVDKLNNEIIRPAY
modifications: Colicin U
CFU in mouse thigh compared with no treatment (E. coli strain b3370): no change | CFU reduction after adding colicins [4]: CFU reduction was observed
